≈ marks a conversion by molar mass, not a printed value.
Assays:
[1] = tested on: multi-drug resistant tuberculosis (MDR-TB); assay: Anti-tubercle bacillus activity, liquid medium dilution MIC; assay type: cell-based; details: for MIC: Bacillus, 168 h, read-out: antibacterial activity (MIC) of β-lactam agent alone
[2] = tested on: extensively drug-resistant tuberculosis (XDR-TB); assay: as above; assay type: cell-based; details: for MIC: Bacillus, 168 h, read-out: antibacterial activity (MIC) of β-lactam agent alone

| Compound | MIC [1] [µg/mL] | MIC [2] [µg/mL] | also measured |
| --- | --- | --- | --- |
| CC1(C)S[C@@H]2[C@H](NC(=O)[C@H](N)c3ccc(O)cc3)C(=O)N2[C@H]1C(=O)O [AMPC, amoxicillin, reference compound] | 128 (≈ 350 µM) | 64 (≈ 175 µM) | – |
| C[C@@H](O)[C@H]1C(=O)N2C(C(=O)[O-])=C(SC3Cn4cnc[n+]4C3)[C@H](C)[C@H]12 (some centres unmarked) [BIPM, biapenem, reference compound] | 16 (≈ 45.7 µM) | 2 (≈ 5.71 µM) | – |
| NCCONC(=O)[C@@H]1CC[C@@H]2CN1C(=O)N2OS(=O)(=O)O [Example 59, (2S,5R)—N-(2-Aminoethoxy)-7-oxo-6-(sulfooxy)-1,6-diazabicyclo[3.2.1]octane-2-carboxamide] | – | – | antibacterial activity (MIC) of ABPC in combinatorial use ([1]; ABPC + 4 μg/mL compound, MDR-TB): 32 µg/mL; antibacterial activity (MIC) of AMPC in combinatorial use ([1]; AMPC + 4 μg/mL compound, MDR-TB): 64 µg/mL; antibacterial activity (MIC) of BIPM in combinatorial use ([1]; BIPM + 4 μg/mL compound, MDR-TB): 4 µg/mL; antibacterial activity (MIC) of MEPM in combinatorial use ([1]; MEPM + 4 μg/mL compound, MDR-TB): 8 µg/mL; antibacterial activity (MIC) of TBPM in combinatorial use ([1]; TBPM + 4 μg/mL compound, MDR-TB): 2 µg/mL; antibacterial activity (MIC) of ABPC in combinatorial use ([2]; ABPC + 4 μg/mL compound, XDR-TB): 16 µg/mL; antibacterial activity (MIC) of AMPC in combinatorial use ([2]; AMPC + 4 μg/mL compound, XDR-TB): 16 µg/mL; antibacterial activity (MIC) of BIPM in combinatorial use ([2]; BIPM + 4 μg/mL compound, XDR-TB): 1 µg/mL; antibacterial activity (MIC) of MEPM in combinatorial use ([2]; MEPM + 4 μg/mL compound, XDR-TB): 1 µg/mL; antibacterial activity (MIC) of TBPM in combinatorial use ([2]; TBPM + 4 μg/mL compound, XDR-TB): 0.5 µg/mL |
| C[C@@H](O)[C@H]1C(=O)N2C(C(=O)O)=C(SC3CN(C4=NCCS4)C3)[C@H](C)[C@H]12 [TBPM, tebipenem, reference compound] | 4 (≈ 10.4 µM) | 1 (≈ 2.61 µM) | – |
| CC1(C)S[C@@H]2[C@H](NC(=O)[C@H](N)c3ccccc3)C(=O)N2[C@H]1C(=O)O [ABPC, ampicillin, reference compound] | 128 (≈ 366 µM) | 32 (≈ 91.6 µM) | – |
| C[C@@H](O)[C@H]1C(=O)N2C(C(=O)O)=C(S[C@@H]3CN[C@H](C(=O)N(C)C)C3)[C@H](C)[C@H]12 [MEPM, meropenem, reference compound] | 16 (≈ 41.7 µM) | 4 (≈ 10.4 µM) | – |

Reference: US10556905B2, “Processes for preparing a diazabicyclooctane compound” (priority 2012, dated 2020)
